Assay results reported in patent US3997403A, “Antibiotic G-418 and the production thereof” (Schering Corporation, priority 1975, dated 1976).
Values after ≈ are worked out from the molar mass of the structure shown.

How the values were obtained:
Type in all cases: cell-based
[1] = system: Bacillus subtilis A.T.C.C. 6633; test: standard disc plate microbiological assay; settings: one microgram of the standard; Difco Antibiotic Medium No. 5
From the text: The assay is a standard disc plate assay using Difco Antibiotic Medium No. 5 and Bacillus subtilis A.T.C.C. 6633 as the test organism. The physical conditions of the test are substantially those described for neomycin (Grove and Randall), Assay Methods of Antibiotics published by Medical Encyclopedia Incorporated (1955). The assay is run against a standard preparation of Antibiotic G-418 having a defined potency of 1000 mcg/mg. […] The standard antibiotic sulfate salt assays about 750 mcg/mg. against the standard antibiotic base.

[2] = system: Escherichia coli 894; test: In Vitro Antibacterial Activity (Table IV); settings: E. coli 894, Tryptose Phosphate Broth pH 7.2 - 7.5, read-out: MIC (Minimum Inhibitory Concentration)
From the text: (§1) In Table IV and Table V are set forth the in vitro antibacterial spectrum of Antibiotic G-418 against a variety of gram-positive and gram-negative bacteria using standard art recognized methods.
(§2) *Minimum Inhibitory Concentration -- Medium: Tryptose Phosphate Broth pH

[3] = system: Escherichia coli Sc; test: In Vitro Antibacterial Activity (Table IV); settings: E. coli Sc, Tryptose Phosphate Broth pH 7.2 - 7.5, read-out: MIC (Minimum Inhibitory Concentration)
From the text: as §1, §2

[4] = system: Klebsiella pneumoniae DA20; test: In Vitro Antibacterial Activity (Table IV); settings: K. pneumoniae DA20, Tryptose Phosphate Broth pH 7.2 - 7.5, read-out: MIC (Minimum Inhibitory Concentration)
From the text: as §1, §2

[5] = system: Pseudomonas aeruginosa 37; test: In Vitro Antibacterial Activity (Table IV); settings: P. aeruginosa 37, Tryptose Phosphate Broth pH 7.2 - 7.5, read-out: MIC (Minimum Inhibitory Concentration)
From the text: as §1, §2

[6] = system: Pseudomonas aeruginosa VA6; test: In Vitro Antibacterial Activity (Table IV); settings: P. aeruginosa VA6, Tryptose Phosphate Broth pH 7.2 - 7.5, read-out: MIC (Minimum Inhibitory Concentration)
From the text: as §1, §2

[7] = system: Staphylococcus aureus 209P; test: In Vitro Antibacterial Activity (Table IV); settings: S. aureus 209P, Tryptose Phosphate Broth pH 7.2 - 7.5, read-out: MIC (Minimum Inhibitory Concentration)
From the text: as §1, §2

[8] = system: Staphylococcus aureus Gray; test: In Vitro Antibacterial Activity (Table IV); settings: S. aureus Gray, Tryptose Phosphate Broth pH 7.2 - 7.5, read-out: MIC (Minimum Inhibitory Concentration)
From the text: as §1, §2

[9] = system: Staphylococcus aureus Wood; test: In Vitro Antibacterial Activity (Table IV); settings: S. aureus Wood, Tryptose Phosphate Broth pH 7.2 - 7.5, read-out: MIC (Minimum Inhibitory Concentration)
From the text: as §1, §2

[10] = system: Staphylococcus aureus Ziegler; test: In Vitro Antibacterial Activity (Table IV); settings: S. aureus Ziegler, Tryptose Phosphate Broth pH 7.2 - 7.5, read-out: MIC (Minimum Inhibitory Concentration)
From the text: as §1, §2

[11] = system: Streptococcus sp. C203; test: In Vitro Antibacterial Activity (Table IV); settings: Tryptose Phosphate Broth pH 7.2 - 7.5, read-out: MIC (Minimum Inhibitory Concentration)
From the text: as §1, §2

[12] = system: Streptococcus sp. C; test: In Vitro Antibacterial Activity (Table IV); settings: Tryptose Phosphate Broth pH 7.2 - 7.5, read-out: MIC (Minimum Inhibitory Concentration)
From the text: as §1, §2

[13] = system: Bacillus subtilis 6633; test: In Vitro Antibacterial Activity (Table V); settings: B. subtilis 6633, Mueller-Hinton Broth pH 7.2 - 7.5
From the text: as §1
(§3) *Mueller -- Hinton Broth pH 7.2 - 7.5

[14] = system: Escherichia coli 777; test: In Vitro Antibacterial Activity (Table V); settings: E. coli 777, Mueller-Hinton Broth pH 7.2 - 7.5
From the text: as §1, §3

[15] = system: Escherichia coli 887; test: In Vitro Antibacterial Activity (Table V); settings: E. coli 887, Mueller-Hinton Broth pH 7.2 - 7.5
From the text: as §1, §3

[16] = system: Proteus mirabilis 12453; test: In Vitro Antibacterial Activity (Table V); settings: Mueller-Hinton Broth pH 7.2 - 7.5
From the text: as §1, §3

[17] = system: Proteus morganii 8019; test: In Vitro Antibacterial Activity (Table V); settings: Morganella morganii, Mueller-Hinton Broth pH 7.2 - 7.5
From the text: as §1, §3

[18] = system: Proteus rettgeri 9250; test: In Vitro Antibacterial Activity (Table V); settings: Providencia rettgeri, Mueller-Hinton Broth pH 7.2 - 7.5
From the text: as §1, §3

[19] = system: Pseudomonas aeruginosa 1236; test: In Vitro Antibacterial Activity (Table V); settings: P. aeruginosa 1236, Mueller-Hinton Broth pH 7.2 - 7.5
From the text: as §1, §3

[20] = system: Pseudomonas aeruginosa 1262; test: In Vitro Antibacterial Activity (Table V); settings: P. aeruginosa 1262, Mueller-Hinton Broth pH 7.2 - 7.5
From the text: as §1, §3

[21] = system: Pseudomonas aeruginosa 20; test: In Vitro Antibacterial Activity (Table V); settings: P. aeruginosa 20, Mueller-Hinton Broth pH 7.2 - 7.5
From the text: as §1, §3

[22] = system: Pseudomonas aeruginosa 83; test: In Vitro Antibacterial Activity (Table V); settings: P. aeruginosa 83, Mueller-Hinton Broth pH 7.2 - 7.5
From the text: as §1, §3

[23] = system: Staphylococcus aureus 1257; test: In Vitro Antibacterial Activity (Table V); settings: S. aureus 1257, Mueller-Hinton Broth pH 7.2 - 7.5
From the text: as §1, §3

[24] = system: Staphylococcus aureus 12; test: In Vitro Antibacterial Activity (Table V); settings: S. aureus 12, Mueller-Hinton Broth pH 7.2 - 7.5
From the text: as §1, §3

[25] = system: Staphylococcus aureus 23; test: In Vitro Antibacterial Activity (Table V); settings: S. aureus 23, Mueller-Hinton Broth pH 7.2 - 7.5
From the text: as §1, §3

[26] = system: Staphylococcus aureus 26; test: In Vitro Antibacterial Activity (Table V); settings: S. aureus 26, Mueller-Hinton Broth pH 7.2 - 7.5
From the text: as §1, §3

[27] = system: Staphylococcus aureus 32; test: In Vitro Antibacterial Activity (Table V); settings: S. aureus 32, Mueller-Hinton Broth pH 7.2 - 7.5
From the text: as §1, §3

[28] = system: Staphylococcus aureus 6; test: In Vitro Antibacterial Activity (Table V); settings: S. aureus 6, Mueller-Hinton Broth pH 7.2 - 7.5
From the text: as §1, §3

[29] = system: Staphylococcus aureus Sm 1; test: In Vitro Antibacterial Activity (Table V); settings: SM1, S. aureus Sm 1, Mueller-Hinton Broth pH 7.2 - 7.5
From the text: as §1, §3

Which zone of inhibition [1] does the source give for `CN[C@@H]1[C@@H](O)[C@@H](O[C@@H]2[C@@H](O)[C@H](O[C@H]3O[C@H]([C@@H](C)O)[C@@H](O)[C@H](O)[C@H]3N)[C@@H](N)C[C@H]2N)OC[C@]1(C)O` [Antibiotic G-418] here?
Its zone of inhibition is 16.5 ± 1.5 mm.

And the MIC [2]?
The MIC was 7.5 µg/mL (≈ 15.1 µM).

What about the MIC [3] of the same compound?
Its MIC is 3 µg/mL (≈ 6.04 µM).

And the MIC [4]?
Its MIC is 3 µg/mL (≈ 6.04 µM).

What about the MIC [5] of the same compound?
Its MIC is 17.5 µg/mL (≈ 35.2 µM).

What about the MIC [6] of the same compound?
Its MIC is 3 µg/mL (≈ 6.04 µM).

And the MIC [7]?
The MIC was 0.8 µg/mL (≈ 1.61 µM).

And the MIC [8]?
The MIC was 7.5 µg/mL (≈ 15.1 µM).

And the MIC [9]?
Its MIC is 0.8 µg/mL (≈ 1.61 µM).

What about the MIC [10] of the same compound?
Its MIC is 0.8 µg/mL (≈ 1.61 µM).

And the MIC [11]?
The MIC was 17.5 µg/mL (≈ 35.2 µM).

What about the MIC [12] of the same compound?
The MIC was > 25 µg/mL.

What about the MIC [13] of the same compound?
Its MIC is 3 µg/mL (≈ 6.04 µM).

What about the MIC [14] of the same compound?
Its MIC is 3 µg/mL (≈ 6.04 µM).

What about the MIC [15] of the same compound?
Its MIC is 3 µg/mL (≈ 6.04 µM).

What about the MIC [16] of the same compound?
Its MIC is 7.5 µg/mL (≈ 15.1 µM).

And the MIC [17]?
The MIC was 0.8 µg/mL (≈ 1.61 µM).

And the MIC [18]?
Its MIC is 0.3 µg/mL (≈ 0.604 µM).

And the MIC [19]?
Its MIC is 17.5 µg/mL (≈ 35.2 µM).

What about the MIC [20] of the same compound?
Its MIC is 17.5 µg/mL (≈ 35.2 µM).

What about the MIC [21] of the same compound?
Its MIC is 3 µg/mL (≈ 6.04 µM).

And the MIC [22]?
The MIC was 7.5 µg/mL (≈ 15.1 µM).

What about the MIC [23] of the same compound?
Its MIC is 0.3 µg/mL (≈ 0.604 µM).

And the MIC [24]?
The MIC was 3 µg/mL (≈ 6.04 µM).

What about the MIC [25] of the same compound?
Its MIC is 0.3 µg/mL (≈ 0.604 µM).

What about the MIC [26] of the same compound?
Its MIC is 3 µg/mL (≈ 6.04 µM).

And the MIC [27]?
The MIC was 7.5 µg/mL (≈ 15.1 µM).

And the MIC [28]?
Its MIC is 0.3 µg/mL (≈ 0.604 µM).

And the MIC [29]?
The MIC was 0.3 µg/mL (≈ 0.604 µM).
